Laboratory results taken from ChEMBL document CHEMBL5352464, “Structure based design and evaluation of benzoheterocycle derivatives as potential dual HIV-1 protease and reverse transcriptase inhibitors” (Eur J Med Chem, 2023).

How the values were obtained:
[1] = target: Human immunodeficiency virus type 1 protease (Human immunodeficiency virus 1, UniProt Q72874); test: Inhibition of HIV-1 protease expressed in Escherichia coli using Arg-Glu-(EDANS)-Ser-Gln-Asn-Tyr-Pro-Ile-Val-Gln-Lys-([…])-Arg as substrate preincubated with compound for 20 to 30 mins followed by substrate addition and measured after 10 mins by FRET analysis
[2] = target: Human immunodeficiency virus type 1 reverse transcriptase (Human immunodeficiency virus 1) (UniProt Q72547); test: Inhibition of HIV-1 NL4-3 reverse transcriptase at 100 uM by RT-PCR analysis relative to control
[3] = target: Human immunodeficiency virus type 1 reverse transcriptase (Human immunodeficiency virus 1, UniProt Q72547); test: Inhibition of HIV-1 NL4-3 reverse transcriptase by RT-PCR analysis
[4] = test system: Human immunodeficiency virus 1; test: Antiviral activity against VSV-G pseudotyped HIV1 NL4-3 infected in HEK293T cells assessed as inhibition of late stage viral replication pre-infected with cells for 5 hrs followed by compound treatment for 48 hrs and further infected with human SupT1 cells for 48 hrs by luciferase based analysis; assay type: functional, organism-based; settings: Human immunodeficiency virus 1, NL4-3, HEK-293T
[5] = Selectivity ratio of EC50 for antiviral activity against VSV-G pseudotyped HIV1 NL4-3 infected in human SUP-T1 cells assessed as inhibition of early stage viral replication to EC50 for antiviral activity against VSV-G pseudotyped HIV1 NL4-3 infected in HEK293T cells assessed as inhibition of late stage viral replication; assay type: functional, Human immunodeficiency virus 1
[6] = test system: Human immunodeficiency virus 1; test: Antiviral activity against wild-type HIV1 NL4-3 infected in human SUP-T1 cells assessed as inhibition of viral replication pre-infected with compound for 1 day followed by compound washout and replaced with fresh medium for 48 hrs and further infected with human TZM-bl cells by lucifrease based analysis; assay type: functional, organism-based; settings: Human immunodeficiency virus 1, NL4-3, SUP-T1
[7] = Selectivity ratio of EC50 for antiviral activity against DRV-resistant HIV1 mutant to EC50 for antiviral activity against wild-type HIV1 NL4-3 infected in human SUP-T1 cells assessed as inhibition of viral replication; assay type: functional, Human immunodeficiency virus 1
[8] = test system: Human immunodeficiency virus 1; test: microbe, parasite or virus in culture; settings: Human immunodeficiency virus 1, NL4-3, SUP-T1, 48 h
Description: Antiviral activity against VSV-G pseudotyped HIV1 NL4-3 infected in human SUP-T1 cells assessed as inhibition of early stage viral replication incubated for 48 hrs by luciferase based analysis

[9] = test system: Human immunodeficiency virus 1; test: microbe, parasite or virus in culture

Row | SMILES | IC50 [1] | inhibition [2] | IC50 [3] | also measured
1 | COc1ccc(S(=O)(=O)N(CC(C)C)C[C@@H](O)[C@H](Cc2ccccc2)NC(=O)c2cc3ccc(O)cc3[nH]2)cn1 | 0.46 µM | < 20% | – | –
2 | COc1ccc(S(=O)(=O)N(CC(C)C)C[C@@H](O)[C@H](Cc2ccccc2)NC(=O)c2cc3ccc(O)cc3o2)cn1 | 2.84 µM | – | 223 µM | –
3 | CC(C)CN(C[C@@H](O)[C@H](Cc1ccccc1)NC(=O)c1cc2cc(O)ccc2[nH]1)S(=O)(=O)c1ccc(N)cc1 | 0.86 µM | – | 102 µM | –
4 | COc1ccc(S(=O)(=O)N(CC(C)C)C[C@@H](O)[C@H](Cc2ccccc2)NC(=O)c2cc3cc(O)ccc3[nH]2)cc1 | 0.58 µM | < 20% | – | –
5 | COc1ccc(S(=O)(=O)N(CC(C)C)C[C@@H](O)[C@H](Cc2ccccc2)NC(=O)c2cc3cc(O)c(O)cc3o2)cn1 | 2.31 µM | – | 5.82 µM | EC50 [4]: 4.2 µM; Ratio EC50 [5]: 3.45; EC50 [6]: 4.2 µM; Ratio EC50 [7]: 4.1; EC50 [8]: 14.5 µM; EC50 [9]: 17 µM
6 | COc1ccc(S(=O)(=O)N(CC(C)C)C[C@@H](O)[C@H](Cc2ccccc2)NC(=O)c2cc3cc(O)c(O)cc3o2)cc1 | 1.93 µM | – | 2.35 µM | EC50 [4]: 4.4 µM; Ratio EC50 [5]: 2.12; EC50 [6]: 4.4 µM; Ratio EC50 [7]: 3.8; EC50 [8]: 9.33 µM; EC50 [9]: 16.6 µM
7 | CC(C)CN(C[C@@H](O)[C@H](Cc1ccccc1)NC(=O)c1cc2cc(O)ccc2o1)S(=O)(=O)c1ccc(N)cc1 | 4.53 µM | < 20% | – | –
8 | CC(C)CN(C[C@@H](O)[C@H](Cc1ccccc1)NC(=O)c1cc2ccccc2o1)S(=O)(=O)c1ccc(N)cc1 | 16.3 µM | < 20% | – | –
9 | COc1ccc(S(=O)(=O)N(CC(C)C)C[C@@H](O)[C@H](Cc2ccccc2)NC(=O)c2coc3cc(O)ccc23)cc1 | 1.56 µM | – | 60.3 µM | –
10 | COc1ccc(S(=O)(=O)N(CC(C)C)C[C@@H](O)[C@H](Cc2ccccc2)NC(=O)c2cc3cc(O)c(O)cc3[nH]2)cc1 | 1.07 µM | – | 96.5 µM | –
11 | COc1ccc(S(=O)(=O)N(CC(C)C)C[C@@H](O)[C@H](Cc2ccccc2)NC(=O)c2cc3ccc(N)cc3o2)cc1 | 3.73 µM | < 20% | – | –
12 | COc1ccc(S(=O)(=O)N(CC(C)C)C[C@@H](O)[C@H](Cc2ccccc2)NC(=O)c2cc3ccc(O)cc3[nH]2)cc1 | 0.5 µM | – | 164 µM | –
13 | COc1ccc(S(=O)(=O)N(CC(C)C)C[C@@H](O)[C@H](Cc2ccccc2)NC(=O)c2cc3cc(N)ccc3o2)cc1 | 5.3 µM | < 20% | – | –
14 | CC(C)CN(C[C@@H](O)[C@H](Cc1ccccc1)NC(=O)c1cc2ccc(O)cc2[nH]1)S(=O)(=O)c1ccc(N)cc1 | 0.55 µM | – | 178 µM | –
15 | COc1ccc(S(=O)(=O)N(CC(C)C)C[C@@H](O)[C@H](Cc2ccccc2)NC(=O)c2cc3cc(O)ccc3[nH]2)cn1 | 0.74 µM | < 20% | – | –
16 | COc1ccc(S(=O)(=O)N(CC(C)C)C[C@@H](O)[C@H](Cc2ccccc2)NC(=O)c2cc3ccc(O)cc3o2)cc1 | 2 µM | < 20% | – | –
17 | COc1ccc(S(=O)(=O)N(CC(C)C)C[C@@H](O)[C@H](Cc2ccccc2)NC(=O)c2cc3ccccc3[nH]2)cc1 | 7.51 µM | < 20% | – | –
18 | COc1ccc(S(=O)(=O)N(CC(C)C)C[C@@H](O)[C@H](Cc2ccccc2)NC(=O)c2coc3ccc(O)cc23)cc1 | 2.05 µM | – | 82.7 µM | –
19 | COc1ccc(S(=O)(=O)N(CC(C)C)C[C@@H](O)[C@H](Cc2ccccc2)NC(=O)c2cc3cc(O)ccc3o2)cc1 | 2.38 µM | < 20% | – | –
20 | CC(C)CN(C[C@@H](O)[C@H](Cc1ccccc1)NC(=O)O[C@H]1CO[C@H]2OCC[C@H]21)S(=O)(=O)c1ccc(N)cc1 | – | – | – | EC50 [4]: 0.002 µM; EC50 [6]: 0.002 µM
21 | COc1ccc(S(=O)(=O)N(CC(C)C)C[C@@H](O)[C@H](Cc2ccccc2)NC(=O)c2cc3ccccc3o2)cc1 | 9.21 µM | – | 65.5 µM | –
22 | O=C1Nc2ccc(Cl)cc2[C@@](C#CC2CC2)(C(F)(F)F)O1 [EFAVIRENZ] | – | – | – | EC50 [4]: > 100 µM
23 | CC(C)CN(C[C@@H](O)[C@H](Cc1ccccc1)NC(=O)c1cc2ccc(O)cc2o1)S(=O)(=O)c1ccc(N)cc1 | 3.05 µM | < 20% | – | –
24 | COc1ccc(S(=O)(=O)N(CC(C)C)C[C@@H](O)[C@H](Cc2ccccc2)NC(=O)c2coc3cc(O)c(O)cc23)cn1 | 1.36 µM | – | 7.5 µM | EC50 [4]: 1.76 µM; Ratio EC50 [5]: 12.88; EC50 [6]: 1.76 µM; Ratio EC50 [7]: 1.6; EC50 [8]: 22.7 µM; EC50 [9]: 2.83 µM
25 | COc1ccc(S(=O)(=O)N(CC(C)C)C[C@@H](O)[C@H](Cc2ccccc2)NC(=O)c2coc3ccccc23)cc1 | 8.96 µM | < 20% | – | –
26 | COc1ccc(S(=O)(=O)N(CC(C)C)C[C@@H](O)[C@H](Cc2ccccc2)NC(=O)c2cc3cc(O)ccc3o2)cn1 | 1.98 µM | – | 118 µM | –
27 | COc1ccc(S(=O)(=O)N(CC(C)C)C[C@@H](O)[C@H](Cc2ccccc2)NC(=O)c2cc3cc(O)c(O)cc3[nH]2)cn1 | 0.84 µM | – | 1.52 µM | EC50 [4]: 0.17 µM; Ratio EC50 [5]: 61.59; EC50 [6]: 0.17 µM; Ratio EC50 [7]: 12.9; EC50 [8]: 10.5 µM; EC50 [9]: 2.19 µM
28 | COc1ccc(S(=O)(=O)N(CC(C)C)C[C@@H](O)[C@H](Cc2ccccc2)NC(=O)c2c[nH]c3ccccc23)cc1 | 12.9 µM | < 20% | – | –
